Here are results for one compound from patent US10351559B2, “Maleate salts of a B-RAF kinase inhibitor, crystalline forms, methods of preparation, and uses therefore” (BeiGene, Ltd., priority 2015, dated 2019).

Data set [1] can be described thus: hygroscopicity (moisture sorption) by DVS. Format: physicochemical. Particulars: exposed to 95% RH, DVS. An excerpt:
The free base of Compound 1 was obtained originally as an amorphous solid, which is slightly hygroscopic with 2.2% water gain from 0 to 80% RH. No form transformation was observed after dynamic vapor sorption (DVS).

Data set [2] in a line: nonclinical toxicity and safety pharmacology program. As for the experimental part:
A comprehensive nonclinical toxicity study program, including 28-day GLP studies in rats and dogs and several investigational studies, was conducted for the evaluation of the preclinical safety of Compound 1 Sesqui-Maleate (Crystalline Form A*). These studies took account the available regulatory guidance for preclinical development of anticancer drugs.

A further data set in a line: aqueous solubility study. In kind it is physicochemical. Conditions: sesqui-maleate salt.
The next data set concerns HT-29 cells. Nature of the data set: CellTiter-Glo luminescent cell viability assay. In kind it is cell-based. Conditions: Homo sapiens, 72 h; HT-29, BRAF V600E, 3-day exposure, N=2; read-out: Compound 1 EC50 (mean ± SD). As for the experimental part: (§1) A375, Sk-Mel-28, HT29, Colo205, A431, and HCC827 cell lines were purchased from American Type Culture Collection. All the cell lines used in the cellular assays were cultured in the designated medium supplemented with 10% fetal bovine serum (FBS, Thermo Scientific), 100 units/mL penicillin (Gibco), 0.1 mg/mL streptomycin (Gibco) and in a humidified 37° C. environment with 5% CO2. Cell lines were reinstated from frozen stocks laid down within three passages from the original cells purchased and passaged no more than 30 times.
(§2) The growth-inhibitory activity of compounds in a panel of melanoma, colon, breast and lung cancer cells was determined using CellTiter-Glo luminescent cell viability assay (Promega). The number of cells seeded per well of a 96-well plate was optimized for each cell line to ensure logarithmic growth over the 3 days treatment period. Cells were left to attach for 16 hours and then treated with a 10-point dilution series in duplicate. Following a 3-day exposure to the compound, a volume of CellTiter-Glo reagent equal to the volume of cell culture medium present in each well was added. Mixture was placed on an orbital shaker for 2 minutes to allow cell lysing, followed by 10 minutes incubation at room temperature to allow development and stabilization of luminescent signal. Luminescent signal was measured using PHERAstar FS reader (BMG Labtech). EC50 values for cell viability were determined with GraphPad Prism software.

In another data set the test system is Sk-Mel-28 cells. Description: CellTiter-Glo luminescent cell viability assay. Format: cell-based. Conditions: Homo sapiens, 72 h; Sk-Mel-28, BRAF V600E, 3-day exposure, N=2; read-out: Compound 1 EC50 (mean ± SD). As to the method:
as §1, §2

For a further data set, the system named is A375 cells. Description: CellTiter-Glo luminescent cell viability assay. In kind it is cell-based. Particulars: Homo sapiens, A-375, 72 h; A375, BRAF V600E, 3-day exposure, N=2; read-out: Compound 1 EC50 (mean ± SD). As for the experimental part:
as §1, §2

For a further data set, the system named is Colo-205 cells. Nature of the data set: CellTiter-Glo luminescent cell viability assay. In kind it is cell-based. Particulars: Homo sapiens, 72 h; Colo-205, BRAF V600E, 3-day exposure, N=2; read-out: Compound 1 EC50 (mean ± SD). As to the method:
as §1, §2

The target of the next data set is CYP2C19 (Homo sapiens, UniProt P33261). Nature of the data set: CYP inhibition. Format: in vitro ADME.
The next data set concerns the target CYP2C8 (Homo sapiens, UniProt P10632). Description: CYP inhibition. In kind it is in vitro ADME.

Counter-ions that a name gives are not always drawn.

Sequence of CYP2C19 (P33261 whole entry): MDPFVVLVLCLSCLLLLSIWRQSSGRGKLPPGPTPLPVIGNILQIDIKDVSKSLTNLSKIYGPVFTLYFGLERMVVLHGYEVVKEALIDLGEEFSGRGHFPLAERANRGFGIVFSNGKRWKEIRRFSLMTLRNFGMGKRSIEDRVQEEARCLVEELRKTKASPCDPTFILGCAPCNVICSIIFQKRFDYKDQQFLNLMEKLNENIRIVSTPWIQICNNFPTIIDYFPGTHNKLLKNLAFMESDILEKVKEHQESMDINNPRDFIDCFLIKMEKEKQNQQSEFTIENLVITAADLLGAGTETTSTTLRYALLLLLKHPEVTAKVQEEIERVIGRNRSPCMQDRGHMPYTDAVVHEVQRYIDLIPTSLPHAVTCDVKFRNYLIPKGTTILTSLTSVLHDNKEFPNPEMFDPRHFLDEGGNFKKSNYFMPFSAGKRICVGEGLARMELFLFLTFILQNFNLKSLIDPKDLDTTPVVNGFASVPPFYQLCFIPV
Sequence of CYP2C8 (P10632 whole entry): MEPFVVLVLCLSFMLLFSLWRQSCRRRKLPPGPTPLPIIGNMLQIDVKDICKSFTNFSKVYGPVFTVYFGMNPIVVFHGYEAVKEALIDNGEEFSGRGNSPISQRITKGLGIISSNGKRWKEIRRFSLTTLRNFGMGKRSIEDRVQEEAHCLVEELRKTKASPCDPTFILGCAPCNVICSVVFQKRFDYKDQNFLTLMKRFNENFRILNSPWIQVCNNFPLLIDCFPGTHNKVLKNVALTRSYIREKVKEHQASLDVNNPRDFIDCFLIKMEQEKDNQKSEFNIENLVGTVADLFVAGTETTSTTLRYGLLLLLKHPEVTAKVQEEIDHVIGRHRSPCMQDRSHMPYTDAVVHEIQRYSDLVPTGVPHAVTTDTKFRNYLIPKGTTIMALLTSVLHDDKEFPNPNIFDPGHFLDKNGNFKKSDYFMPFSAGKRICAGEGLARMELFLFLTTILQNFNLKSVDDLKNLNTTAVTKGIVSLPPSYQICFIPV

In [1], `O=C1CCc2c(Oc3ccc4c(c3)[C@@H]3[C@H](O4)[C@H]3c3nc4ccc(C(F)(F)F)cc4[nH]3)ccnc2N1` [5-(((1R,1aS,6bR)-1-(6-(trifluoromethyl)-1H-benzo[d]imidazol-2-yl)-1a,6b-dihydro-1H-cyclopropa[b]benzofuran-5-yl)oxy)-3,4-dihydro-1,8-naphthyridin-2(1H)-one sesqui-maleate salt] came in with a water uptake of 0.1801%. Also, in data set [2] (additional toxicity testing), the “teratogenic, mutagenic and reproductive toxicity” value was “no teratogenic, mutagenic and reproductive toxicity”. For the same compound, the “toxicology and safety pharmacology profile” value in data set [2] (incl. 28-day GLP studies in rats and dogs) is “favorable toxicology and safety pharmacology profile”. In [2] (safety pharmacological test), the “effect on autonomic nervous system activity or the central nervous system” value was “no effect”. The “effect on respiration, blood pressure and circulatory function” value in [2] (safety pharmacological test) is recorded as “no effect”. The “solubility in water” value in “aqueous solubility study” was “slightly soluble in water”. For the same compound, the aqueous solubility in the data set “aqueous solubility study” (water, LOQ at 0.001 mg/mL) came to 20 µg/mL. Moreover, the EC50 turned out to be 138 ± 13 nM in the data set on HT-29 cells, 251 ± 54 nM in the data set on Sk-Mel-28 cells, 137 ± 0.5 nM in the data set on A375 cells and 147 ± 0.6 nM with Colo-205 cells. In addition, the 50% inhibitory concentration (IC50) against CYP2C19 was 1960 nM; against CYP2C8, 1030 nM.
